This note sets out measurements from patent EP0406111A1, “Substituted arylamines and heteroarylamines, process for their preparation and pharmaceutical composition containing them” (SOCIETE DE CONSEILS DE […] D'APPLICATIONS SCIENTIFIQUES …, priority 1989, dated 1991).

SMILES strings stand for the structures. pIC50: −log10 of the molar value.

Experiment [1] addresses T1, capture de (³H)dopamine par les synaptosomes striataux de rat (Rattus norvegicus, UniProt P23977).
T1 construct: Les culots résultants P2 contenant les synaptosomes bruts sont ensuite utilisés sans purification supplémentaire; from tissue; host or cells: Wistar rat striatum, crude synaptosomes (P2 pellet)
The experiment is described as follows: biochemical. The settings on record: rat striatal synaptosomes, 5 nM (3H)DA, 5 min at 30°C; read-out: [3H] DA IC50. How it is done: Ce test est pratiqué selon la méthode utilisée par Vignon et Lazdunski en opérant de la façon suivante. Des rats Wistar pesant 200-250g sont tués par dislocation cervicale. Leurs cerveaux sont rapidement prélevés et les striata sont dissé-qués sur la glace. Les striata sont ensuite homogéné-isés (10 allers-retours) avec un homogénéisant Potter dans 50 volumes de tampon Tris HCl 10 mM à pH 7,4 contenant 0,32 M de sucrose. L'homogénat est ensuite centrifugé à 1000g pendant 10min à 4°C, puis le surnageant obtenu est recentrifugé à 10000g pendant 20min à 4°C. Les culots résultants P2 contenant les synaptosomes bruts sont ensuite utilisés sans purification supplémentaire.
On ajoute alors de la dopamine tritiée ((³H)DA, Amersham) à une concentration finale de 5 nM pendant 5 min à 30°C, et on interrompt sa capture par filtration de 150 µl du milieu d'incubation sur des filtres en fibres de verre GF/B (Whatman). La radioactivité retenue par les filtres est mesurée dans un compteur à scintillation liquide (LKB)avec 3 ml d'ACS (Amersham) comme scintillant. La capture non spécifique est mesurée à 4°C dans des incubations parallèles : elle est ensuite sous-traite de la capture totale mesurée à 30°C.
Les composés à tester sont solubilisés au départ dans de l'eau à une concentration de 1mM et les autres concentrations sont obtenues par des dilutions successives de cette solution mère dans l'eau.

Experiment [2] deals with T2, complexe de recapture de la dopamine (Rattus norvegicus, UniProt P23977).
T2 construct: expériences de compétition sur les membranes de striatum préparées comme ci-dessus; from tissue; host or cells: rat striatal membranes
As to the kind of experiment: biochemical. The format is binding. The settings on record: rat striatal membranes, 0,2 nM (3H)BTCP, 90 min at 4°C; read-out: [3H] BTCP IC50. On the procedure:
Exemple 35 : Affinité des composés pour les sites de liaison de la (³H)BTCP sur les membranes striatales de cerveaux de rats.
Les striata de cerveaux de rats rapidement disséqués dans la glace sont homogénéisés avec un ultra turax pendant 30 s (position 6) dans 50 volumes d'une solution de sucrose 0,32 M tamponnée par du Tris-HCl 10 mM à pH = 7,4. L'homogénat est centrifugé à 4°C à 1000g pendant 10 mln, puis le surnageant obtenu est centrifugé à 40000 g à 4°C pendant 30 min et les culots obtenus sont repris dans 1 ml de tampon par striatum.
L'affinité des composés pour le complexe de recapture de la dopamine est déterminée par des expériences de compétition sur les membranes de striatum préparées comme ci-dessus. Le ligand radioactif utilisé est la (³H)BTCP (Service des Molécules Marquées du CEA, Saclay France) à 55Ci/mmol.
Après 90 min à 4°C, 3 aliquots de 250 µl sont filtrés sous vide sur des filtres de fibre de verre GF/B (Whatman). La liaison non spécifique est obtenue dans des expériences parallè-les réalisées en présence de 10 µM de BTCP non marquée. Elle est soustraite de la liaison totale pour obtenir la liaison spécifique.

In a further experiment the test system is souris Swiss. The experiment is described as follows: Locomotor activity of mice in the Boissier-Simon actimeter (Example 38). Format: in vivo. The following applies: 30 min after administration, beams crossed from 20th to 35th minute. How it is done: Exemple 38 : Mesure de l'activité locomotrice.
L'activité locomotrice de souris Swiss (mâles CD1, 25-30 g, Charles River, St Aubin lès Elbeuf, France) est mesurée dans l'actimètre Boissier-Simon (Apelex, Bagneux, France).
30 minutes après l'administration des composés à tester (10 mg/kg, i.p.), les souris sont introduites dans des cages individuelles en Plexiglass (L = 26 cm, l = 20 cm, h = 10 cm), équipées de deux cellules photoélectriques situées à 1 cm au-dessus du plancher. Chaque cellule est reliée à un compteur électromécanique. "L'activité locomotrice" correspond au nombre de rayons traversés, de la 20ème à la 35ème minute après introduction dans les cages d'actimétrie.

The subject of experiment [3] is fixation de la (³H)BTCP dans le striatum de souris. The experiment is described as follows: Inhibition of in vivo (3H)BTCP binding in mouse striatum (Example 40). The settings on record: mice, compound s.c. 60 min before i.v. (3H)BTCP, sacrifice 30 min later. On the procedure:
Exemple 40 : Etude de l'inhibition de la fixation "in vivo" de (³H)BTCP chez la souris.
Pour cette étude, on utilise des souris Swiss mâles pesant 20 à 25g. Les souris sont réparties par groupes et alimentées avec de la nourriture standard de laboratoire et de l'eau à volonté, en réalisant des cycles de lumière artificielle de 12h consécutives à partir de 7h du matin. Les expériences sont effectuées entre 10h et 18h. Les mesures de la fixation "in vivo" de la (³H)BTCP sont effectuées comme il a été décrit par Maurice et al, 1989, de la façon suivante.
On injecte aux souris par voie sous-cutanée le composé à tester dans 100µl de solution physiologique pour les composés n^o 4 et n^o 16 et dans 100µl d'un mélange 1:1 en volume de solution physiologique et de DMSO pour le composé n^o 26. 60 min après cette injection on leur injecte dans une veine de la queue (³H)BTCP à une dose de 5µCi dans 100µl d'un mélange de solution physiologique et d'éthanol à 5%. 30min après cette injection, on sacrifie les souris. Les striata de cerveaux sont rapidement disséqués et homogénéisés avec un ultra turrax (IKA Verk) réglage maximum pendant 20s dans 80 volumes d'un tampon Na₂HPO₄, HCl 50mM, pH=7,4 à 4°C. Deux aliquots de […] sont filtrées sous pression réduite sur des filtres GF/B (Whatman) prétraités par de la polyéthylène imine à 0,5% (Aldrich). On rince ensuite les filtres deux fois avec 5ml d'un tampon NaCl 50mM, tris-HCl 10mM, pH=7,4 à 4°C. La radioactivité fixée qui reste sur les filtres, et la radioactivité totale, obtenue à partir des deux aliquots de 200µl d'homogénats sont mesurées dans des flacons de 6ml contenant 3,5ml de ACS (Amersham) avec un spectrophotomètre à scintillation liquide Excel 1410 (LKB). La fixation non spécifique est définie comme la radioactivité présente dans chaque région après prétraitement des animaux avec de la BTCP (40mg/kg dans 100µl de solution saline), injectée par voie sous-cutanée, 60min avant l'injection de (³H)BTCP. Les résultats sont exprimés sous la forme des rapports radioactivité fixée / radioactivité libre (B/F) dans lesquels le taux de (³H)BTCP libre est estimé en soustrayant la radioactivité fixée de la radioactivité totale.

T1 sequence (P23977 whole entry): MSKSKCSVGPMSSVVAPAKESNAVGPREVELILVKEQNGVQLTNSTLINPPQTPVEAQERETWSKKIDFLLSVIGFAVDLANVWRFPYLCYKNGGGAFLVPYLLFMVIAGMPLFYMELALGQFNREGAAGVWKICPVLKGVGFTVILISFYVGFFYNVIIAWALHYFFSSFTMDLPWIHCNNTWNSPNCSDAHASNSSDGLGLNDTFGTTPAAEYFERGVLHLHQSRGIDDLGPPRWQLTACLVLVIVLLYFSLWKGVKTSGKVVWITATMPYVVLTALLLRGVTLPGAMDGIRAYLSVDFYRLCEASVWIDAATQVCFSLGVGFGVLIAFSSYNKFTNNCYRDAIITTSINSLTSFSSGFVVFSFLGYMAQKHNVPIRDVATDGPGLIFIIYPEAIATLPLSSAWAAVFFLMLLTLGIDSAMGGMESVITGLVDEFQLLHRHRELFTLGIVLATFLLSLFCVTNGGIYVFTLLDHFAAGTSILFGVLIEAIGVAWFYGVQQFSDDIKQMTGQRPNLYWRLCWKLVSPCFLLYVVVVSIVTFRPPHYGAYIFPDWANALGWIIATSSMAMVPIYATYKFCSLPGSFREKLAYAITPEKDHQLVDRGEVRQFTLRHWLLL
T2 sequence (P23977 whole entry, one chain of several): as the sequence (P23977 whole entry) above

With `c1ccc2cc(C3(N4CCCCC4)CCCCC3)ccc2c1` [composé n^o 16, (naphtyl-2)-1 (pipéridi-no-1)-1 cyclohexane], the pIC50 (usually the IC50 on a negative log10 scale, so that one unit is a factor of ten) was 7.44 in experiment [1] and 7.83 in experiment [2]. For the same molecule, the “Activité locomotrice Variation (%) par rapport aux témoins (100%) pour la dose 10 mg/kg,i.p.” value with souris Swiss is “+269±57%”. Besides, the “ID₅₀ (mg/kg)” value in experiment [3] was 2,66 mg/kg.
